In patent US4559323A, “A41030 Antibiotics” (Eli Lilly and Company, priority 1984, dated 1985):
≈ marks a conversion by molar mass, not a printed value.

Experiments:
Format in all cases: cell-based
Enterobacter aerogenes = test: Agar-dilution MIC; details: Table 17; 24 hours; Enterobacter aerogenes C32
Neisseria sp. = test: Agar-dilution MIC; details: Table 10
Description: The test results are recorded in Table 10, which follows.

Streptococcus faecalis = test: Agar-dilution MIC; details: Table 7; Streptococcus faecalis X66
Escherichia coli EC14 = test: Disc-plate sensitivity procedure

N[C@H]1C(=O)N[C@@H]2Cc3ccc(c(Cl)c3)Oc3cc4cc(c3O)Oc3ccc(cc3Cl)[C@@H](O)[C@@H]3NC(=O)C(NC(=O)[C@@H]4NC(=O)[C@@H](NC2=O)c2cc(O)cc(c2)Oc2cc1ccc2O)c1ccc(O)c(c1)-c1c(O)cc(O)cc1[C@@H](C(=O)O)NC3=O [A41030 factor B]
MIC (Enterobacter aerogenes): 64 µg/mL (≈ 53.4 µM)

NC1C(=O)NC2Cc3ccc(c(Cl)c3)Oc3cc4cc(c3O)Oc3ccc(cc3Cl)C(O)C3NC(=O)C(NC(=O)C4NC(=O)C(NC2=O)c2cc(O)cc(c2)Oc2cc1ccc2O)c1cc(Cl)c(O)c(c1)-c1c(O)cc(O)cc1C(C(=O)O)NC3=O (stereo not drawn) [A41030 factor A]
MIC (Neisseria sp.; strain L. Nance): 4.0 µg/mL (≈ 3.24 µM) | MIC (Neisseria sp.; strain Mitchell): 4.0 µg/mL (≈ 3.24 µM) | MIC (Neisseria sp.; strain Sanders): 1.0 µg/mL (≈ 0.811 µM) | MIC (Neisseria sp.; strain Schultz): 8.0 µg/mL (≈ 6.49 µM) | MIC (Neisseria sp.; strain Woods): 4.0 µg/mL (≈ 3.24 µM) | MIC (Streptococcus faecalis): < 0.5 µg/mL | Zone diameter (Escherichia coli EC14; Table 8, 10 μg./disc): 0 mm | Zone diameter (Escherichia coli EC14; Table 8, 100 μg./disc): 8.0 mm
